Assay results published in patent US11530226B2, “Azepane inhibitors of menin-MLL interaction” (Janssen Pharmaceutica NV, priority 2016, dated 2022).

Tests used:
[1] = target: T1, menin / FITC-MBM1 peptide (Menin/MLL) (Homo sapiens, UniProt O00255); experiment: Menin/MLL fluorescence polarization (FP) assay; type: binding; settings: read-out: (1) Menin FP assay (IC50 (μM))
T1 sequence (O00255 1-610): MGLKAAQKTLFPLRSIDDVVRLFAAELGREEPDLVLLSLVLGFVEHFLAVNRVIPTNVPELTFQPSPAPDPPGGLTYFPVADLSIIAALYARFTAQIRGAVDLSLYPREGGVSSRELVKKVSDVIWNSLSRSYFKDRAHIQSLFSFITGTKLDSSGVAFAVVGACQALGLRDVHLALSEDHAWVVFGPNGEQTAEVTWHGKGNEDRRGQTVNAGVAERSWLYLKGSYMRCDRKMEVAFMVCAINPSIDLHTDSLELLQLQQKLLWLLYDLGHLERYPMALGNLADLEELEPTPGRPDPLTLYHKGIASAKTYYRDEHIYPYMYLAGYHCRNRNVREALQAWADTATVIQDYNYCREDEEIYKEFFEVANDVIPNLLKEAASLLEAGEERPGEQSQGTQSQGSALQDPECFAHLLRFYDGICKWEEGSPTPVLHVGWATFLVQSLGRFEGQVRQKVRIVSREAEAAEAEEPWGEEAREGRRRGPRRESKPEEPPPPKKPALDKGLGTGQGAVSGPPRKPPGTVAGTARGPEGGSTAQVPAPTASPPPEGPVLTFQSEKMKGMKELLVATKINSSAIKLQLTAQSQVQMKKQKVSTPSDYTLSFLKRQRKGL
Procedure: Pharmacological Part 1) Menin/MLL Fluorescence Polarization Assay
To a non-surface binding, black 384-well microtiter plate was added 50 nL 160× test compound in DMSO and 4 μL 2× menin in assay buffer (40 mM TrisHCl, pH 7.5, 50 mM NaCl, 1 mM DTT and 0.001% Tween 20). After incubation of test compound and menin for 10 min at ambient temperature, 4 μL 2×FITC-MBM1 peptide (FITC-β-alanine-SARWRPPARPGT-NH2) in assay buffer was added, the microtiter plate centrifuged at 1000 rpm for 1 min and the assay mixtures incubated for 15 min at ambient temperature. The relative amount of menin -FITC-MBM1 complex present in an assay mixture is determined by measuring the fluorescence polarization (FP) of the FITC label with a BMG Pherastar plate reader (ex. 485 nm/em. 520 nm) at ambient temperature. The final concentrations of reagents in the binding assay are 100 nM menin, 5 nM FITC-MBM1 peptide and 0.625%>DMSO in assay buffer. Dose-response titrations of test compounds are conducted using an 11 point, three-fold serial dilution scheme, starting at 31 μM.
Compound potencies were determined by first calculating % inhibition at each compound concentration according to equation 1: % inhibition=((HC−LC)−(FPcompound−LC))/(HC−LC))*100 (Eqn 1)
Where LC and HC are the FP values of the assay in the presence or absence of a saturating concentration of a compound that competes with FITC-MBM1 for binding to menin, and FP^compound is the measured FP value in the presence of the test compound. HC and LC FP values represent an average of at least 16 replicates per plate.
Where Bottom and Top are the lower and upper asymptotes of the dose-response curve, respectively, IC50 is the concentration of compound that yields 50% inhibition of signal and h is the Hill coefficient.

[2] = target: T2, terbium chelate-labeled menin / FITC-MBM1 peptide (Menin/MLL) (Homo sapiens, UniProt O00255, T541A); experiment: Menin/MLL homogenous time-resolved fluorescence (HTRF) assay; type: binding; settings: read-out: (2) Menin HTRF assay (IC50 (nM))
T2 construct: Menin (a. a. l-610-6×his tag) was labeled with terbium cryptate as follows
T2 sequence (O00255 with tags, fused parts or gaps T541A): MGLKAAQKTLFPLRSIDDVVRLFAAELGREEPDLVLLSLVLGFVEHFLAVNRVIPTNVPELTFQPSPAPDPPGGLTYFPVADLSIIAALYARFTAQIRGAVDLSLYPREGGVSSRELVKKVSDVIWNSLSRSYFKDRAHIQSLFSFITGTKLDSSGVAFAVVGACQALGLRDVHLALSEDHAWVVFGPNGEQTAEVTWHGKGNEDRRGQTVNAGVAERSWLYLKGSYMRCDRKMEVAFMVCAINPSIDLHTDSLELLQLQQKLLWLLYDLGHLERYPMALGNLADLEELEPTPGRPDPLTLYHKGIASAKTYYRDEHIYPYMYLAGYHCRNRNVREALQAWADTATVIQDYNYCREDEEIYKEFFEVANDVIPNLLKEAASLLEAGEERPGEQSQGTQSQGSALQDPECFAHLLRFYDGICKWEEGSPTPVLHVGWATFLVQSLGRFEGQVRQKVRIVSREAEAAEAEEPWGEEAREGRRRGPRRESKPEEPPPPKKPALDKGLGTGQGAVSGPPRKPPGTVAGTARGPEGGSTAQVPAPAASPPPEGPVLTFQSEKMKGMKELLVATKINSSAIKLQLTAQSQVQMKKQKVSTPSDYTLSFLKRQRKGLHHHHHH
Summary of the method: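 Terbium cryptate-labeled menin (aa 1-610, 6×His), 100 pM, preincubated 5 min with compound, then 75 nM FITC-MBM1 peptide added for 15 min at ambient temperature. Buffer: 40 mM Tris pH 7.5, 50 mM NaCl, 1 mM DTT, 0.05% Pluronic F-127, 0.5% DMSO. HTRF 520/490 ratio; 11-point threefold titration from 25 μM, IC50 from % inhibition curve.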

Structure (SMILES)	IC50 [1]	IC50 [2]
FC(F)CN[C@@H]1CCCN(c2ncnc3sc(CC(F)(F)F)cc23)CC1 [Compound 5]	6.36 µM	9530 nM
FC(F)CN[C@@H]1CCCN(c2ncnc3sc(CC(F)(F)F)cc23)CC1 [Compound 5a]	6.15 µM	8290 nM
